The text below walks through data of PMC5731253 (Journal of medicinal chemistry, 2017).

The structures appear in SMILES notation. Like-named read-outs stand apart in the source and are kept apart here.

In series [1] the test system is human embryonic lung (HEL) fibroblasts.
Series [2] deals with thymidine kinase-deficient (TK−) HSV-1 KOS strain. It counts as cell-based, herpes simplex virus type 1. The note with it: HEL cell cultures.
Another series relates to TK- VZV (07-1). The format is cell-based, varicella-zoster virus.
Series [3] relates to human embryonic lung (HEL) fibroblasts. As to the kind of experiment: Minimum cytotoxic concentration, HEL cell morphology.
Series [4] relates to HIV-1. The series can be described thus: HIV-1 inhibition in MT-4 cell cultures. The format is cell-based, human immunodeficiency virus type 1. The note with it: HIV-1, MT-4 cells.
Series [5] has as its system HIV-1. The series can be described thus: HIV-1 inhibition in human tonsillar tissues ex vivo. It counts as cell-based, human immunodeficiency virus type 1. Particulars: HIV-1 X4LAI.04, 12 days culture.

Consider `Nc1nc(O)c2ncn(COC(CO)CO)c2n1` [Compound 1, ganciclovir, reference compound], for which, in series [1], the “Cytotoxicity MCC” value is recorded as >100 µM.

On to `Nc1nc2c(ncn2CCC(CO)CO)c(=O)[nH]1` [Compound 2, penciclovir, reference compound], for which the “Cytotoxicity MCC” value in series [1] was >100 µM.

Regarding `CC(C)(NP(=O)(OCC(CO)OCn1cnc2c(=O)[nH]c(N)nc21)Oc1ccccc1)C(=O)OCc1ccccc1` (centres unmarked) [Compound 20], the “fold difference in EC50 values between HSV-1 TK+ and TK− strains” value in series [2] was < 2.5 fold. Further, in the series on TK- VZV (07-1), the “fold more active than ACV against VZV TK− 07-1 strain” value is given as ≥ 20 fold. Besides, the “Cytotoxicity MCC” value in series [3] (Table 3 (HSV assays)) is listed as >100 µM; in series [3] (Table 4 (HCMV/VZV assays)) it was >50 µM.

Regarding `C[C@H](NP(=O)(OCC(CO)OCn1cnc2c(=O)[nH]c(N)nc21)Oc1ccccc1)C(=O)OCc1ccccc1` (some centres unmarked) [Compound 27], the “fold more active than ACV against VZV TK− 07-1 strain” value in the series on TK- VZV (07-1) is listed as ≥ 20 fold. The “Cytotoxicity MCC” value in series [3] (Table 3 (HSV assays)) and in series [3] (Table 4 (HCMV/VZV assays)) was >100 µM in each case.

For `C[C@H](NP(=O)(OCC(CO)CCn1cnc2c(=O)[nH]c(N)nc21)Oc1ccccc1)C(=O)OCc1ccccc1` (some centres unmarked) [Compound 42], in the series on HIV-1 [4], the “selectivity index (ratio IC50/EC50)” value was > 15. The figures for the “Cytotoxicity MCC” value in series [3] (Table 3 (HSV assays)) and in series [3] (Table 4 (HCMV/VZV assays)) were >100 µM and >50 µM, respectively.

Take `C[C@H](NP(=O)(OCC(COP(=O)(N[C@@H](C)C(=O)OCc1ccccc1)Oc1ccccc1)SCn1cnc2c(=O)[nH]c(N)nc21)Oc1ccccc1)C(=O)OCc1ccccc1` (some centres unmarked) [Compound 55]: the “Anti-HIV Activity EC50” value in the series on HIV-1 [5] is reported as “did not inhibit HIV”.

On to `C[C@H](NP(=O)(OCC(CCn1cnc2c(Cl)nc(N)nc21)COP(=O)(N[C@@H](C)C(=O)OCc1ccccc1)Oc1ccccc1)Oc1ccccc1)C(=O)OCc1ccccc1` (some centres unmarked) [Compound 59], for which the “fold loss in antiviral activity versus mono-ProTide 60” value in the series on HIV-1 [4] is on record as 7 fold.

Turning to `COc1nc(N)nc2c1ncn2CCC(CO)COP(=O)(N[C@@H](C)C(=O)OCc1ccccc1)Oc1ccccc1` (some centres unmarked) [Compound 66], the “Antiviral Activity EC50 HSV-1 TK (KOS)” value in series [2] (TK-deficient, ACV-resistant strain) is on record as “retention of some activity”. For the same compound, the “selectivity index (ratio IC50/EC50)” value in the series on HIV-1 [4] turned out to be 21.

Consider `CCOC(=O)[C@H](C)NP1(=O)OCC(OCn2cnc3c(=O)[nH]c(N)nc32)CO1` (some centres unmarked) [Compound 74], for which the “selectivity index (ratio IC50/EC50)” value in the series on HIV-1 [4] is on record as > 7.
